Measurements as given in paper PMC7534323 (Journal of Enzyme Inhibition and Medicinal Chemistry, 2020).
Several values for one entry are separate records, joined by “and”; a condition that tells them apart may be missing. Equal values may be shown once.

Assays:
[1] = molecular target: T1, human erythrocyte acetylcholinesterase (AChE) (Homo sapiens, UniProt P22303); experiment: biochemical; type: biochemical
T1 construct: 400-fold diluted solution of haemolysed erythrocytes or 200-fold diluted plasma; from tissue; host or cells: haemolysed erythrocytes from blood of healthy human donors
Procedure: (§1) Blood samples were obtained from healthy donors of Blood Donation Centre in Lodz and The Voievodal Specialised Hospital in Lodz. The preparation of erythrocytes for AChE activity measurements and plasma for the assessment of BuChE activity has been described previously.
(§2) The biological sample, consisting of a 400-fold diluted solution of haemolysed erythrocytes or 200-fold diluted plasma was incubated for 15 min (37 °C) with DTNB; the tested compound was then added in a volume of 10 µL. The enzymatic reaction was initiated by addition of a reaction substrate (ATC or BTC).

BuChE in human plasma = BuChE in human plasma (Homo sapiens, UniProt P06276)
Procedure: Due to the high level of variation in the individual concentration and activity of BuChE in human plasma, 32 biological samples were studied.
The kinetic parameters of enzymatic reactions were estimated using linear regression (Hanes-Woolf plots). The following parameters were calculated: the maximal velocity (Vmax) and the Michaelis constant (Km).
The kinetic parameters of BuChE reactions were obtained in a series of experiments using decreasing concentrations of BTC. The curves were analysed using the Hanes-Woolf equation, in which the ratio of the initial substrate concentration [S] to the reaction velocity v is plotted against [S].

[2] = molecular target: human plasma butyrylcholinesterase (BuChE) (Homo sapiens, UniProt P06276); experiment: biochemical
Procedure: as §1, §2

T1 sequence (P22303 other isoform, or with tags, fused parts or gaps): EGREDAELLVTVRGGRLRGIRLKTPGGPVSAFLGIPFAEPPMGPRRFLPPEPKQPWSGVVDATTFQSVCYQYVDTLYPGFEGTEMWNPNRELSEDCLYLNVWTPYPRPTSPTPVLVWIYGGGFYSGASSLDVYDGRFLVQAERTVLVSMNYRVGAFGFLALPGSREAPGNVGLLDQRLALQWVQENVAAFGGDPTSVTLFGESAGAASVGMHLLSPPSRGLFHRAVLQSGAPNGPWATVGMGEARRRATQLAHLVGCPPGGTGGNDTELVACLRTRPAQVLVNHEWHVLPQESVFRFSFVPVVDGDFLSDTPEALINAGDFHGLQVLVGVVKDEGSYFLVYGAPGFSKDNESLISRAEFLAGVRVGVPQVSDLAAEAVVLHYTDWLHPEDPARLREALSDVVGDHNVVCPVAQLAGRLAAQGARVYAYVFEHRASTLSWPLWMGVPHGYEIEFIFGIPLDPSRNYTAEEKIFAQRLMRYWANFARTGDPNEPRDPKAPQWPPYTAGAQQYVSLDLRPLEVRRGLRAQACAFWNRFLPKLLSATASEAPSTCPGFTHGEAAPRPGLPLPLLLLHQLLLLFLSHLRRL
BuChE in human plasma, sequence (P06276 29-602): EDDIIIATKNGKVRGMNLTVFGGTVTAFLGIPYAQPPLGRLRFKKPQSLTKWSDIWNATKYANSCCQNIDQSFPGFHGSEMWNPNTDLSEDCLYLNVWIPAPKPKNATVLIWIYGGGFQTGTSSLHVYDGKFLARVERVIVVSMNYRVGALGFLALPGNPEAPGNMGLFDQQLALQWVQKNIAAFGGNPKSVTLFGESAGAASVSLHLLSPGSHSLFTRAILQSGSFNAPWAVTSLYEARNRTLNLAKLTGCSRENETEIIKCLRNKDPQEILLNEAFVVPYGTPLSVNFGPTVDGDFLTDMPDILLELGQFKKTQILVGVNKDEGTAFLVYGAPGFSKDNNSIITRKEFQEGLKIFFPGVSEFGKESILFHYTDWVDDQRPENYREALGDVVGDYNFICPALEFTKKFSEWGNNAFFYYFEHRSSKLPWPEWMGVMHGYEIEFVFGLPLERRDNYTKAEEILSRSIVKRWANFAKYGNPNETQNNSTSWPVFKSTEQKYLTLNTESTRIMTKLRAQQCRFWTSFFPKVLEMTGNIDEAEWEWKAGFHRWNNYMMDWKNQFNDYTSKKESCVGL
human plasma butyrylcholinesterase (BuChE), sequence (P06276 29-602): as above

| SMILES | maximal inhibition of AChE ([1]; concentration range 0.01−100 µmol/L, vs control (100% of activity), listed as compound 2) | type of BuChE inhibition (BuChE in human plasma; from Km and Vmax with and without inhibitor at IC50 concentration) | Vmax(i) (Vmax of the reactions with inhibitor) (BuChE in human plasma; inhibitor at IC50 concentration, substrate BTC, mean ± SD) [A/min] | IC50 [2] [µM] | IC50 [1] [µM] | inhibition at 100 µM ([1]; read-out: maximal inhibitory effect against AChE) [%] |
| --- | --- | --- | --- | --- | --- | --- |
| Cc1ncc(C)n2nc(-c3ccn4cc(-c5ccccc5)nc4n3)nc12 [CPL500036-02] | 34.87 ± 1.65% and ~34.87% | – | – | – | – | – |
| OCCOCCN1CCN(C2=Nc3ccccc3Sc3ccccc32)CC1 [Quetiapine] | – | mixed inhibition | 0.137 ± 0.036 | 6.08 ± 1.64 | > 100 | 8.82 ± 1.68 |
